In patent US20120058989A1, “ANTIBACTERIAL FLUOROQUINOLONE ANALOGS” (Achaogen, Inc., priority 2008, published 2012):
Values after ≈ are worked out from the molar mass of the structure shown.

Tests used:
Assay in all cases: MIC, CLSI broth microdilution
Type in all cases: cell-based
[1] = test system: P. aeruginosa APAE001 (Fluoroquinolone-susceptible, ATCC27853); details: Pseudomonas aeruginosa, Table 2, read-out: MIC APAE 001
Outline: (§1)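 Broth microdilution per CLSI M7-A7, with serial two-fold compound dilutions in Mueller Hinton Broth mixed 1:1 with inoculum. Colonies from a previous-day agar plate were suspended in saline to a final 5×10^5 CFU/mL. Plates were incubated 20 hours at 35° C. in ambient air.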

[2] = test system: S. aureus ASAU1031 (Fluoroquinolone-resistant); details: Staphylococcus aureus, Table 2, read-out: MIC ASAU 1031
Outline: as §1

[3] = test system: E. coli AECO066 (Fluoroquinolone-resistant); details: Escherichia coli, Table 2, read-out: MIC AECO 066
Outline: as §1

[4] = test system: P. aeruginosa APAE054 (Fluoroquinolone-resistant); details: Pseudomonas aeruginosa, Table 2, read-out: MIC APAE 054
Outline: as §1

[5] = test system: E. coli AECO001 (Fluoroquinolone susceptible, ATCC25922); details: Escherichia coli, Table 2, 35° C., 20 hours, read-out: MIC AECO 001
Outline: as §1

[6] = test system: A. baumannii AABA1065 (Fluoroquinolone-susceptible); details: Acinetobacter baumannii, Table 2, read-out: MIC AABA 1065
Outline: as §1

[7] = test system: S. pneumoniae ASPN001 (Fluoroquinolone-susceptible, ATCC49619); details: Streptococcus pneumoniae, Table 2, read-out: MIC ASPN 001
Outline: as §1

[8] = test system: S. aureus ASAU001 (Fluoroquinolone-susceptible, ATCC29213); details: Staphylococcus aureus, Table 2, read-out: MIC ASAU 001
Outline: as §1

[9] = test system: S. pneumoniae ASPN1027 (Fluoroquinolone-resistant); details: Streptococcus pneumoniae, Table 2, read-out: MIC ASPN 1027
Outline: as §1

[10] = test system: A. baumannii AABA1009 (Fluoroquinolone-resistant); details: Acinetobacter baumannii, Table 2, read-out: MIC AABA 1009
Outline: as §1

| MIC [1] [µg/mL] | MIC [2] [µg/mL] | MIC [3] [µg/mL] | MIC [4] [µg/mL] | MIC [5] [µg/mL] | MIC [6] [µg/mL] | MIC [7] [µg/mL] | MIC [8] [µg/mL] | MIC [9] [µg/mL] | MIC [10] [µg/mL] | SMILES |
| --- | --- | --- | --- | --- | --- | --- | --- | --- | --- | --- |
| ≤ 1 | 1 to 8 (≈ 2.71 to 21.7 µM) | > 8 | > 8 | ≤ 1 | ≤ 1 | ≤ 1 | ≤ 1 | 1 to 8 (≈ 2.71 to 21.7 µM) | > 8 | N[C@H]1CC2CC=Cc3c(c(F)cc4c(=O)c(C(=O)O)cn(C5CC5)c34)N2C1 (some centres unmarked) [32 /5] |
| > 8 | > 8 | > 8 | > 8 | ≤ 1 | 1 to 8 (≈ 2.79 to 22.3 µM) | 1 to 8 (≈ 2.79 to 22.3 µM) | ≤ 1 | > 8 | > 8 | O=C(O)c1cn(C2CC2)c2c3c(c(F)cc2c1=O)N1CCCC1CCO3 (centres unmarked) [32/1] |
| ≤ 1 | > 8 | > 8 | > 8 | ≤ 1 | ≤ 1 | ≤ 1 | ≤ 1 | > 8 | > 8 | N[C@H]1C[C@H]2CCOc3c(c(F)cc4c(=O)c(C(=O)O)cn(C5CC5)c34)N2C1 [32/2] |
| 1 to 8 (≈ 2.69 to 21.5 µM) | > 8 | > 8 | > 8 | ≤ 1 | > 8 | ≤ 1 | ≤ 1 | 1 to 8 (≈ 2.69 to 21.5 µM) | > 8 | N[C@H]1CC2CCCc3c(c(F)cc4c(=O)c(C(=O)O)cn(C5CC5)c34)N2C1 (some centres unmarked) [32/4] |
| ≤ 1 | > 8 | > 8 | > 8 | ≤ 1 | ≤ 1 | ≤ 1 | ≤ 1 | 1 to 8 (≈ 2.57 to 20.5 µM) | > 8 | CO/N=C1\CN(c2nc3c(cc2F)c(=O)c(C(=O)O)cn3C2CC2)CC1CN (centres unmarked) [Gemifloxacin, reference compound] |
